The numbers were not newly measured in patent publication US20190021382A1, “LONG-LASTING SWEETENER FORMULATIONS” (WM. WRIGLEY JR. COMPANY, priority 2016, published 2019), which cites them from elsewhere.

Molecules are shown by their SMILES.

The conditions of this data set: relative to sugar.

In the case of `C=C1C[C@@]23CC[C@H]4[C@@](C)(CCC[C@@]4(C)C(=O)O[C@@H]4O[C@H](CO)[C@@H](O)[C@H](O)[C@H]4O)[C@@H]2CC[C@]1(O[C@@H]1O[C@H](CO)[C@@H](O)[C@H](O[C@@H]2O[C@H](CO)[C@@H](O)[C@H](O)[C@H]2O)[C@H]1O[C@@H]1O[C@H](CO)[C@@H](O)[C@H](O)[C@H]1O)C3` [Rebaudioside A, rebaudioside A], the “times sweeter than sugar” value is 200 times.
